{
  "source": "patent US5605911A",
  "about": "“Use of alpha-2 adrenergic drugs to prevent adverse effects of NMDA receptor hypofunction (NRH)” (priority 1995, dated 1997)",
  "key": {"α2 receptors": {"test_system": "α2 receptors", "settings": "in words; cited from earlier work"}, "PC/RS cortical neurons": {"test_system": "PC/RS cortical neurons", "test": "protection by anti-psychotic drugs against MK-801 (NRH)-induced vacuoles in rats", "assay_type": "in vivo", "settings": "Rattus norvegicus, Cortical neurone, ip", "procedure": "Control animals received saline or DMSO, but no anti-psychotic drugs. Test animals were injected ip with an antipsychotic drug, listed above and in Table 2. Vacuoles were counted and data were processed as described in Example 1."}, "[1]": {"test_system": "neurotoxic side effects caused by NMDA antagonists such as PCP or MK-801", "settings": "Olney et al 1991, U.S. Pat. No. 5,034,400; cited from earlier work"}, "[2]": {"test_system": "pyramidal neurons in layers III and IV of the posterior cingulate (PC) and retrosplenial (RS) cortices", "test": "protection by alpha-2 adrenergic agonists against MK-801 neurotoxicity (vacuolated PC/RS neurons) in rats", "settings": "for ED50: Rattus norvegicus, Pyramidal neuron, ip, 4 h; for relative potency in preventing the neurotoxic reaction: ranking in words among the four α2 agonists", "source_text": "For each test agent, at least 17 rats were used and at least four doses tested.\nThe rats were sacrificed four hours after treatment, and brain tissue from the PC/RS region was histopathologically evaluated by previously described methods using double-blinded techniques (Olney et al 1991). The number of vacuolated PC and RS neurons were counted on each side of the brain at a rostrocaudal level immediately posterior to where the corpus callosum ceases decussating across the midline (approximately 5.6 mm caudal to Bregma; Paxinos & Watson, The Rat Brain in Stereotaxic Coordinates, 2d Ed., 1986)."}, "[3]": {"test_system": "alpha-2 adrenergic receptor", "settings": "for shift of clonidine blocking curve: preliminary, combined with clonidine (n=4), yohimbine 1 mg/kg ip or rauwolscine 5 mg/kg ip", "procedure": "The brains were processed and the severity of damage assessed as described in Example 1. Results were analyzed by analysis of variance (ANOVA) where the dose of xylazine was the covariate and the presence of yohimbine served as the classification (treatment) variable. The homogeneity of slopes assumption was tested by determining whether there was a significant interaction between the covariate and the treatment variable."}},
  "note": "Entries after “also recorded” stand apart in the source; their conditions may differ. Read-outs that look alike come from different tables or passages of the source.",
  "data": [
    {"compound": "Clc1ccc2nsnc2c1NC1=NCCN1", "note": "[tizanidine]", "values": [
      {"measurement": "affinity/selectivity for α2 over α1 receptors", "setting": "α2 receptors", "value": "activate α2 receptors with higher affinity than they have for α1 receptors"}
    ]},
    {"compound": "Cc1cc2c(s1)Nc1ccccc1N=C2N1CCN(C)CC1", "note": "[Olanzapine]", "values": [
      {"measurement": "ED50", "setting": "PC/RS cortical neurons", "value": 1.4, "unit": "mg/kg"}
    ]},
    {"compound": "Cc1cccc(C(C)c2cnc[nH]2)c1C", "note": "(stereo not drawn) [medetomidine]", "values": [
      {"measurement": "affinity/selectivity for α2 over α1 receptors", "setting": "α2 receptors", "value": "activate α2 receptors with higher affinity than they have for α1 receptors"}
    ]},
    {"compound": "OC(CCN1CCCCC1)(c1ccccc1)C1CCCCC1", "note": "(stereo not drawn) [trihexyphenidyl]", "values": [
      {"measurement": "block of neurotoxic side effects caused by NMDA antagonists", "setting": "[1]", "value": "can block the neurotoxic side effects caused by NMDA antagonists"}
    ]},
    {"compound": "OC(CCN1CCCC1)(c1ccccc1)C1CCCCC1", "note": "(stereo not drawn) [procyclidine]", "values": [
      {"measurement": "block of neurotoxic side effects caused by NMDA antagonists", "setting": "[1]", "value": "can block the neurotoxic side effects caused by NMDA antagonists"}
    ]},
    {"compound": "CN1CCN(C2=Nc3cc(F)ccc3Cc3ccccc32)CC1", "note": "[Fluperlapine]", "values": [
      {"measurement": "ED50", "setting": "PC/RS cortical neurons", "value": 2.3, "unit": "mg/kg"}
    ]},
    {"compound": "Clc1ccc2c(c1)C(N1CCNCC1)=Nc1ccccc1O2", "note": "[Amoxapine]", "values": [
      {"measurement": "ED50", "setting": "PC/RS cortical neurons", "value": 75, "unit": "mg/kg"}
    ]},
    {"compound": "CC(N)C(O)c1ccc(O)c(O)c1", "note": "(stereo not drawn) [alpha-methylnoradrenaline]", "values": [
      {"measurement": "affinity/selectivity for α2 over α1 receptors", "setting": "α2 receptors", "value": "activate α2 receptors with higher affinity than they have for α1 receptors"}
    ]},
    {"compound": "OC(CCN1CCCCC1)(c1ccccc1)C1CC2C=CC1C2", "note": "(stereo not drawn) [biperiden]", "values": [
      {"measurement": "block of neurotoxic side effects caused by NMDA antagonists", "setting": "[1]", "value": "can block the neurotoxic side effects caused by NMDA antagonists"}
    ]},
    {"compound": "N=C(N)N/N=C/c1c(Cl)cccc1Cl", "note": "[Guanabenz]", "values": [
      {"measurement": "ED50", "setting": "[2]", "value": 0.21, "unit": "mg/kg"},
      {"measurement": "relative potency in preventing the neurotoxic reaction", "setting": "[2]", "value": "intermediate"},
      {"measurement": "affinity/selectivity for α2 over α1 receptors", "setting": "α2 receptors", "value": "activate α2 receptors with higher affinity than they have for α1 receptors"}
    ]},
    {"compound": "Clc1cc(I)cc(Cl)c1NC1=NCCN1", "note": "[p-Iodoclonidine]", "values": [
      {"measurement": "ED50", "setting": "[2]", "value": 1.3, "unit": "mg/kg"},
      {"measurement": "relative potency in preventing the neurotoxic reaction", "setting": "[2]", "value": "intermediate"},
      {"measurement": "affinity/selectivity for α2 over α1 receptors", "setting": "α2 receptors", "value": "activate α2 receptors with higher affinity than they have for α1 receptors"}
    ]},
    {"compound": "Cc1cccc([C@H](C)c2cnc[nH]2)c1C", "note": "[dexmedetomidine]", "values": [
      {"measurement": "affinity/selectivity for α2 over α1 receptors", "setting": "α2 receptors", "value": "activate α2 receptors with higher affinity than they have for α1 receptors; also recorded: substantially more selectivity for α2 receptors than for α1 receptors, when compared to clonidine; also recorded: substantially higher selectivity for α2 receptors (and substantially lower affinity for α1 receptors) than clonidine"}
    ]},
    {"compound": "COC(=O)[C@H]1[C@H]2C[C@H]3c4[nH]c5ccccc5c4CCN3C[C@H]2CC[C@@H]1O", "note": "[rauwolscine]", "values": [
      {"measurement": "shift of clonidine blocking curve", "setting": "[3]", "value": "A similar shifting of the curve to the right"}
    ]},
    {"compound": "C1COC(NC(C2CC2)C2CC2)=N1", "note": "[rilmenidine]", "values": [
      {"measurement": "affinity/selectivity for α2 over α1 receptors", "setting": "α2 receptors", "value": "activate α2 receptors with higher affinity than they have for α1 receptors"}
    ]},
    {"compound": "CN1[C@@H]2CC[C@H]1C[C@@H](OC(c1ccccc1)c1ccccc1)C2", "note": "[benztropine]", "values": [
      {"measurement": "block of neurotoxic side effects caused by NMDA antagonists", "setting": "[1]", "value": "can block the neurotoxic side effects caused by NMDA antagonists"}
    ]},
    {"compound": "Cc1ccccc1NC(=N)Nc1ccccc1C", "note": "[Di(2-tolyl)guanidine, di(2-tolyl)guanidine]", "values": [
      {"measurement": "ED50", "setting": "PC/RS cortical neurons", "value": 22.2, "unit": "mg/kg"}
    ]},
    {"compound": "CN1CCN(C2=Nc3cc(Cl)ccc3Nc3ccccc32)CC1", "note": "[Clozapine]", "values": [
      {"measurement": "ED50", "setting": "PC/RS cortical neurons; protection against MK-801-induced vacuoles, confidence limits 25th & 75th percentiles in separate column, read-out: ED50", "value": 3.2, "unit": "mg/kg"}
    ]},
    {"compound": "C=CCC1(C(C)CCC)C(=O)NC(=O)NC1=O", "note": "(stereo not drawn) [secobarbitol]", "values": [
      {"measurement": "block of neurotoxic side effects caused by NMDA antagonists", "setting": "[1]", "value": "can block the neurotoxic side effects caused by NMDA antagonists"}
    ]},
    {"compound": "CCN1CCc2nc(N)oc2CC1", "note": "[azepexole]", "values": [
      {"measurement": "affinity/selectivity for α2 over α1 receptors", "setting": "α2 receptors", "value": "activate α2 receptors with higher affinity than they have for α1 receptors; also recorded: substantially more selectivity for α2 receptors than for α1 receptors, when compared to clonidine; also recorded: substantially higher selectivity for α2 receptors (and substantially lower affinity for α1 receptors) than clonidine"}
    ]},
    {"compound": "C[C@](N)(Cc1ccc(O)c(O)c1)C(=O)O", "note": "[alpha-methyldopa]", "values": [
      {"measurement": "affinity/selectivity for α2 over α1 receptors", "setting": "α2 receptors", "value": "activate α2 receptors with higher affinity than they have for α1 receptors"}
    ]},
    {"compound": "COC(=O)[C@@H]1[C@H]2C[C@H]3c4[nH]c5ccccc5c4CCN3C[C@@H]2CC[C@@H]1O", "note": "[yohimbine]", "values": [
      {"measurement": "shift of clonidine blocking curve", "setting": "[3]", "value": "A similar shifting of the curve to the right"},
      {"measurement": "effect on xylazine's protection", "setting": "[3]; yohimbine 1 mg/kg ip with various doses of xylazine, MK-801-treated rats, F(1,42)=9.40, p=0.004", "value": "significantly interfered with xylazine's protection"},
      {"measurement": "shift of xylazine blocking curve", "setting": "[3]; yohimbine 1 mg/kg ip, MK-801-treated rats, FIG. 2", "value": "shifted the blocking curve to the right"}
    ]}
  ]
}
